Assay results published in ChEMBL document CHEMBL1146524, “Isolation of homodolastatin 16, a new cyclic depsipeptide from a Kenyan collection of Lyngbya majuscula” (J Nat Prod, 2003).
In brackets after ≈: the same amount, converted by molar mass. Starred links: 1 amine or outer side, 2 acyl side, 3 side chain; linkers in the order of their positions; H or OH if unused. Non-standard residues stand in square brackets, D forms with d. Residues, ends and D or L forms follow the SMILES beside them. X1 = CC(Cc1ccccc1)C(N[*:1])C(=O)[*:2]; X2 = CC(C)C(N[*:1])C(C)C(=O)[*:2]; dNMeV = CN[C@@H](C(=O)O)C(C)C; dHiv = CC(C)[C@@H](O)C(=O)O; Lac = C[C@H](O)C(=O)O

Legend:
[1] = Cytotoxicity against human WHCO1 cells after 48 hrs by MTT method; format: functional, cell-based; conditions: WHCO1, 48 h
[2] = Cytotoxicity against human WHCO6 cells after 48 hrs by MTT method; format: functional, cell-based; conditions: WHCO6, 48 h
ME-180 = test: Cytotoxicity against human ME180 cells after 48 hrs by MTT method; format: functional, cell-based; conditions: ME-180, 48 h
NCI-H460 = test: Cytotoxicity against human NCI-H460 cells after 48 hrs by MTT method; format: functional; conditions: NCI-H460, 48 h
KM-20L2 = test: Cytotoxicity against human KM20L2 cells after 48 hrs by MTT method; format: functional; conditions: KM-20L2, 48 h
SF-295 = test: Cytotoxicity against human SF295 cells after 48 hrs by MTT method; format: functional; conditions: SF-295, 48 h
SK-MEL-5 = test: Cytotoxicity against human SK-MEL-5 cells after 48 hrs by MTT method; format: functional; conditions: SK-MEL-5, 48 h

## CC[C@H](C)[C@H]1C(=O)N2CCC[C@H]2C(=O)NC(C(C)Cc2ccccc2)C(=O)N2CCC[C@H]2C(=O)NC(C(C)C)C(C)C(=O)OC(C)C(=O)N2CCC[C@H]2C(=O)O[C@H](C(C)C)C(=O)N1C (some centres not stated) [HOMODOLASTATIN 16]
[1]
  IC50: 4300 ng/mL (≈ 4810 nM)
[2]
  IC50: 10100 ng/mL (≈ 11300 nM)
ME-180
  IC50: 8300 ng/mL (≈ 9290 nM)

## CC(C)C1NC(=O)[C@@H]2CCCN2C(=O)C(C(C)Cc2ccccc2)NC(=O)[C@@H]2CCCN2C(=O)[C@@H](C(C)C)N(C)C(=O)[C@@H](C(C)C)OC(=O)[C@@H]2CCCN2C(=O)[C@H](C)OC(=O)C1C (some centres not stated) [DOLASTATIN 16] (cyclo([Lac]P[dHiv][dNMeV]P[X1]P[X2]))
NCI-H460
  GI50: 0.96 ng/mL (≈ 1.09 nM)
KM-20L2
  GI50: 1.2 ng/mL (≈ 1.37 nM)
SF-295
  GI50: 5.2 ng/mL (≈ 5.92 nM)
SK-MEL-5
  GI50: 3.3 ng/mL (≈ 3.75 nM)
